“Also recorded” adds a separate entry of the source.
Assays:
CYP72A219 (a) = system: CYP72A219 (a); design: species or system Amaranthus palmeri; details: in vivo
Description: (§1) Transcript abundance was measured in the 11 resistant survey populations for genes CYP72A219 (a), CYP81E, and a CYP not implicated in herbicide resistance (FIG. 4B-D). Known sensitive populations HPPD S and HPPD S 12021 were included as references, as was known resistant population HPPD R 12001, the population previously characterized for increased expression of CYP72A219 (a) and CYP81E. Relative transcript abundance was quantified using qRT-PCR on cDNA synthesized from RNA extracted from individuals before and 6 h after tembotrione treatment, using normalization genes as previously described.

CYP81E = system: CYP81E; design: species or system Amaranthus palmeri; details: in vivo
Description: as §1

[1] = system: a CYP not implicated in herbicide resistance; design: species or system Amaranthus palmeri; details: in vivo
Description: as §1

[2] = system: CYP81E gene (SEQ ID NO: 9); experiment: tembotrione metabolism in yeast expressing CYP81E; assay type: in vitro ADME, Amaranthus palmeri; details: CYP81E SEQ ID NO: 9 vector; 150 μL of 1000 μM tembotrione, 24 h, 30 C; FIG. 3F
Description: (§2) A functional validation of the candidate genes was conducted in a yeast system. In brief, the yeast lines WAT11 and WAT21 express the plant cytochrome P450 reductase genes ATR1 and ATR2, respectively, and have the endogenous yeast cytochrome P450 reductase gene knocked out. The sequences of the three CYP72A219 genes and the CYP81E gene were codon-optimized for expression in yeast and synthesized by Genewiz in vector pUC57. The genes were cloned into yeast expression vector pYES2 with a galactose inducible promoter, a uracil synthesis gene, and an ampicillin resistance gene. The vectors were first transformed into E. coli and selected on ampicillin, followed by sequencing to confirm the correct insertion of the P450 gene sequence. Plasmid was extracted from transformed colonies for transformation into yeast lines WAT11 and WAT21 using a LiAc protocol and plated on glucose-containing media lacking uracil to select for transformed cells. The empty pYES2 vector was included as a negative control, and a vector containing the Nsf1 gene from corn was included as a positive control known to metabolize the HPPD-inhibiting herbicides mesotrione and tembotrione. […] The incubation solution was then centrifuged, and the supernatant was analyzed using LC/MS-MS to measure parent tembotrione and hydroxy tembotrione metabolites. […]

Palmer amaranth = experiment: tembotrione dose response (plant survival) of Palmer amaranth survey populations; assay type: in vivo, Amaranthus palmeri; details: eleven survey populations; FIG. 4A
Description: A survey of Palmer amaranth in the US was conducted to identify additional populations resistant to the HPPD inhibiting herbicide tembotrione. A tembotrione dose response was conducted to compare the response of the survey populations to a known sensitive population. The population USA 12001 (the population used for all previous work to identify CYP450 genes) was used as a known resistant reference.

[3] = system: Palmer amaranth (Amaranthus palmeri); details: in vivo; cited from earlier work
[4] = system: CYP81E and CYP72A219 genes; design: species or system Amaranthus palmeri; details: in vivo
[5] = system: CYP72A219 gene from chromosome 4 (MAKER-25717; SEQ ID NO: 1); experiment: tembotrione metabolism in yeast expressing CYP72A219 (a); assay type: in vitro ADME, Amaranthus palmeri; details: CYP72A219 SEQ ID NO: 1 vector; 150 μL of 1000 μM tembotrione, 24 h, 30 C; FIG. 3C
Description: as §2

[6] = system: yeast lines WAT11 and WAT21; experiment: tembotrione metabolism in yeast with empty pYES2 vector (negative control); assay type: in vitro ADME; details: 150 μL of 1000 μM tembotrione, 24 h, 30 C, FIG. 3A
Description: as §2

[7] = system: second CYP72A219 gene from chromosome 4 (SEQ ID NO: 5); experiment: tembotrione metabolism in yeast expressing CYP72A219 (b); assay type: in vitro ADME, Amaranthus palmeri; details: SEQ ID NO: 5 vector; 150 μL of 1000 μM tembotrione, 24 h, 30 C; FIG. 3D-E
Description: as §2

[8] = system: CYP72A219 gene from chromosome 16 (SEQ ID NO: 7); experiment: tembotrione metabolism in yeast expressing CYP72A219 (c); assay type: in vitro ADME, Amaranthus palmeri; details: SEQ ID NO: 7 vector; 150 μL of 1000 μM tembotrione, 24 h, 30 C; FIG. 3D-E
Description: as §2

[9] = system: CYP72A219 (a), CYP72A219 (b), CYP72A219 (c) and CYP81E genes; design: species or system Amaranthus palmeri; details: in vivo
[10] = system: variant allele of this CYP72A219 gene (SEQ ID NO: 3); experiment: tembotrione metabolism in yeast expressing variant allele of CYP72A219 (a); assay type: in vitro ADME, Amaranthus palmeri; details: variant allele SEQ ID NO: 3 vector; 150 μL of 1000 μM tembotrione, 24 h, 30 C
Description: as §2

With CS(=O)(=O)c1ccc(C(=O)C2C(=O)CCCC2=O)c(Cl)c1COCC(F)(F)F [tembotrione, 2-[2-chloro-4-(methylsulfonyl)-3-[(2,2,2,-tri-fluoroethoxy)methyl]benzoyl]-1,3-cyclo-hexanedione] the “CYP72A219 (a) expression following tembotrione treatment” value (CYP72A219 (a)) was “increased CYP72A219 (a) expression”, the “CYP81E expression constitutively or after tembotrione treatment” value (CYP81E) was “No resistant populations from the survey had increased expression of CYP81E” and the “expression of CYP unrelated to herbicide resistance before or after tembotrione treatment” value [1] was “had not increased expression in any populations”. For the same compound, the formation of hydroxy-tembotrione [2] was “did not show formation of hydroxy-tembotrione”, the “LD50 (dose of tembotrione required to cause 50% mortality in the population) relative to reference sensitive population” value (Palmer amaranth) was “significantly higher LD50” and the “detoxification to 4-hydroxy tembotrione metabolite followed by glycosylation” value [3] was “rapidly detoxify”. The “formation of 4-hydroxy tembotrione metabolites in NES” value [3] was “at a slower rate than in NER”, the “rate of hydroxylation, NER compared with NES” value [3] was “more rapidly in NER” and the “expression of both genes after treatment with tembotrione (qRT-PCR)” value [4] was “high expression of both genes”. The “formation of hydroxy-tembotrione metabolite” value [5] was “showed formation of the hydroxy-tembotrione metabolite; also recorded: produced the same hydroxy-tembotrione metabolite as produced in planta”, the “parent tembotrione and hydroxy tembotrione metabolites in supernatant (LC/MS-MS)” value [6] was “only intact tembotrione and no metabolites; also recorded: did not detoxify tembotrione” and the formation of hydroxy-tembotrione [7] was “did not show formation of hydroxy-tembotrione”. For the same compound, the formation of hydroxy-tembotrione [8] was “did not show formation of hydroxy-tembotrione”, the “expression of all four cytochrome P450 genes following tembotrione treatment” value [9] was “induced” and the “formation of hydroxy-tembotrione metabolite” value [10] was “also showed formation of the hydroxy-tembotrione metabolite”.

From patent publication US20250066807A1, “CYP72A219 GENES CONFERRING HERBICIDE TOLERANCE” (COLORADO STATE UNIVERSITY RESEARCH FOUNDATION, priority 2021, published 2025)
